According to patent publication US20230329236A1, “HERBICIDAL PYRIMIDINE DERIVATIVES” (MoA Technology Limited, priority 2020, published 2023):

Legend:
Veronica persica (VERPE) = experiment: Post-emergence glasshouse test, visual injury, VERPE; format: in vivo; conditions: 336 h, 14±1 days post application
Summary of the method: (§1)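 Plants were grown in sandy loam and sprayed post-emergence at BBCH 12-14. The spray was derived from acetone/water (50:50) containing 0.5% Tween 20, dosed as g/ha active ingredient. Percent visual damage versus untreated plants was scored after 14±1 days under controlled glasshouse conditions.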

[1] = tested on: Ipomoea hederacea (IPOHE); experiment: Post-emergence glasshouse test, visual injury, IPOHE; format: in vivo; conditions: Table 4, post-emergence, 14±1 days post application
Method: (§2) Seeds of a variety of test species are grown in a sandy loam soil mixture, Lolium multiflorum (LOLMU), Amaranthus retroflexus (AMARE), Echinochloa crus-gaffi (ECHCG), Veronica persica (VERPE), Glycine max (GLXMA), Oryza sativa (ORYSA), Zea mays (ZEAMX), spring wheat (TRZAS), Ipomoea hederacea (IPOHE), Ipomoea purpurea (PHBPU), Stellaria media (STEME), Solanum nigrum (SOLNI), Digitaria sanguinalis (DIGSA), Setaria italica (SETIT), Alopecurus myosuroides (ALOMY) and Avena fatua (AVEFA).
(§3) After sowing, at growth stage BBCH 12-14 (post-emergence), the plants are sprayed with an aqueous spray solution derived from the formulation of the technical active ingredient in acetone/water (50:50) solution containing 0.5% Tween 20 (polyoxyethlyene sorbitan monolaureate, CAS RN 9005-64-5). The test compounds are applied at the required concentration of active ingredient in g/ha. The test plants are then grown in a glasshouse under controlled environmental conditions and watered regularly as required. After 14±1 days post application (for post-emergence test), the test is evaluated by assessing the percentage damage caused to the plants in comparison with the untreated plots. The biological activities for post-emergence testing are shown below (Table 3 and Table 4) as a % visual injury.

[2] = tested on: Echinochloa crus-gaffi (ECHCG); experiment: Post-emergence glasshouse test, visual injury, ECHCG; format: in vivo, Echinochloa crus-galli; conditions: 336 h, 14±1 days post application
Summary of the method: as §1

spring wheat (TRZAS) = experiment: Post-emergence glasshouse test, visual injury, TRZAS; format: in vivo; conditions: Table 4, post-emergence, 14±1 days post application
Method: as §2, §3

Oryza sativa (ORYSA) = experiment: Post-emergence glasshouse test, visual injury, ORYSA; format: in vivo; conditions: Table 4, post-emergence, 14±1 days post application
Method: as §2, §3

[3] = tested on: Amaranthus retroflexus (AMARE); experiment: Post-emergence glasshouse test, visual injury, AMARE; format: in vivo; conditions: 336 h, 14±1 days post application
Summary of the method: as §1

[4] = tested on: Lolium multiflorum (LOLMU); experiment: Post-emergence glasshouse test, visual injury, LOLMU; format: in vivo; conditions: 336 h, 14±1 days post application
Summary of the method: as §1

Glycine max (GLXMA) = experiment: Post-emergence glasshouse test, visual injury, GLXMA; format: in vivo; conditions: Table 4, post-emergence, 14±1 days post application
Method: as §2, §3

Zea mays (ZEAMX) = experiment: Post-emergence glasshouse test, visual injury, ZEAMX; format: in vivo; conditions: Table 4, post-emergence, 14±1 days post application
Method: as §2, §3

Stellaria media (STEME) = experiment: Post-emergence glasshouse test, visual injury, STEME; format: in vivo; conditions: Table 4, post-emergence, 14±1 days post application
Method: as §2, §3

[5] = tested on: Alopecurus myosuroides (ALOMY); experiment: Post-emergence glasshouse test, visual injury, ALOMY; format: in vivo; conditions: Table 4, post-emergence, 14±1 days post application
Method: as §2, §3

Solanum nigrum (SOLNI) = experiment: Post-emergence glasshouse test, visual injury, SOLNI; format: in vivo; conditions: Table 4, post-emergence, 14±1 days post application
Method: as §2, §3

Ipomoea purpurea (PHBPU) = experiment: Post-emergence glasshouse test, visual injury, PHBPU; format: in vivo; conditions: Table 4, post-emergence, 14±1 days post application
Method: as §2, §3

[6] = tested on: Digitaria sanguinalis (DIGSA); experiment: Post-emergence glasshouse test, visual injury, DIGSA; format: in vivo; conditions: Table 4, post-emergence, 14±1 days post application
Method: as §2, §3

Setaria italica (SETIT) = experiment: Post-emergence glasshouse test, visual injury, SETIT; format: in vivo; conditions: Table 4, post-emergence, 14±1 days post application
Method: as §2, §3

Avena fatua (AVEFA) = experiment: Post-emergence glasshouse test, visual injury, AVEFA; format: in vivo; conditions: Table 4, post-emergence, 14±1 days post application
Method: as §2, §3

[7] = Table 4, post-emergence, 125 g/ha
[8] = Table 4, post-emergence, 250 g/ha
[9] = Table 4, post-emergence, 1000 g/ha

SMILES: Cc1cc(-c2cnc(NCc3ccncc3)nc2C2CC2)on1 [Compound 20]
- pest or weed control at 500 g/ha (Veronica persica (VERPE); Table 3, post-emergence): 30%
- pest or weed control at 125 g/ha (Veronica persica (VERPE); Table 4, post-emergence): 50%
- pest or weed control at 250 g/ha (Veronica persica (VERPE); Table 4, post-emergence): 60%
- pest or weed control at 500 g/ha (Veronica persica (VERPE); Table 4, post-emergence): 70%
- pest or weed control at 1000 g/ha (Veronica persica (VERPE); Table 4, post-emergence): 90%
- IPOHE % visual injury ([1]; 125 g/ha): 0%
- IPOHE % visual injury ([1]; 250 g/ha): 0%
- IPOHE % visual injury ([1]; 500 g/ha): 0%
- IPOHE % visual injury ([1]; 1000 g/ha): 30%
- pest or weed control at 500 g/ha ([2]; Table 3, post-emergence): 0%
- TRZAS % visual injury (spring wheat (TRZAS); 125 g/ha): 0%
- TRZAS % visual injury (spring wheat (TRZAS); 250 g/ha): 0%
- TRZAS % visual injury (spring wheat (TRZAS); 500 g/ha): 30%
- TRZAS % visual injury (spring wheat (TRZAS); 1000 g/ha): 20%
- ORYSA % visual injury (Oryza sativa (ORYSA); 125 g/ha): 50%
- ORYSA % visual injury (Oryza sativa (ORYSA); 250 g/ha): 60%
- ORYSA % visual injury (Oryza sativa (ORYSA); 500 g/ha): 30%
- ORYSA % visual injury (Oryza sativa (ORYSA); 1000 g/ha): 60%
- pest or weed control at 500 g/ha ([3]; Table 3, post-emergence): 80%
- pest or weed control at 125 g/ha ([3]; Table 4, post-emergence): 0%
- pest or weed control at 250 g/ha ([3]; Table 4, post-emergence): 0%
- pest or weed control at 500 g/ha ([3]; Table 4, post-emergence): 50%
- pest or weed control at 1000 g/ha ([3]; Table 4, post-emergence): 90%
- pest or weed control at 500 g/ha ([4]; Table 3, post-emergence): 0%
- GLXMA % visual injury (Glycine max (GLXMA); 125 g/ha): 30%
- GLXMA % visual injury (Glycine max (GLXMA); 250 g/ha): 20%
- GLXMA % visual injury (Glycine max (GLXMA); 500 g/ha): 40%
- GLXMA % visual injury (Glycine max (GLXMA); 1000 g/ha): 50%
- ZEAMX % visual injury (Zea mays (ZEAMX); 125 g/ha): 20%
- ZEAMX % visual injury (Zea mays (ZEAMX); 250 g/ha): 50%
- ZEAMX % visual injury (Zea mays (ZEAMX); 500 g/ha): 50%
- ZEAMX % visual injury (Zea mays (ZEAMX); 1000 g/ha): 40%
- STEME % visual injury (Stellaria media (STEME); 125 g/ha): 0%
- STEME % visual injury (Stellaria media (STEME); 250 g/ha): 30%
- STEME % visual injury (Stellaria media (STEME); 500 g/ha): 40%
- STEME % visual injury (Stellaria media (STEME); 1000 g/ha): 95%

SMILES: Cc1cc(-c2cnc(NCc3ccc(F)cc3)nc2C2CC2)on1 [Compound 16]
- ALOMY % visual injury ([5]; 125 g/ha): 70%
- ALOMY % visual injury ([5]; 250 g/ha): 80%
- ALOMY % visual injury ([5]; 500 g/ha): 80%
- ALOMY % visual injury ([5]; 1000 g/ha): 80%
- SOLNI % visual injury (Solanum nigrum (SOLNI); 125 g/ha): 98%
- SOLNI % visual injury (Solanum nigrum (SOLNI); 250 g/ha): 99%
- SOLNI % visual injury (Solanum nigrum (SOLNI); 500 g/ha): 100%
- SOLNI % visual injury (Solanum nigrum (SOLNI); 1000 g/ha): 100%
- PHBPU % visual injury (Ipomoea purpurea (PHBPU); 125 g/ha): 80%
- PHBPU % visual injury (Ipomoea purpurea (PHBPU); 250 g/ha): 95%
- PHBPU % visual injury (Ipomoea purpurea (PHBPU); 500 g/ha): 90%
- PHBPU % visual injury (Ipomoea purpurea (PHBPU); 1000 g/ha): 90%
- pest or weed control at 500 g/ha (Veronica persica (VERPE); Table 3, post-emergence): 95%
- pest or weed control at 125 g/ha (Veronica persica (VERPE); Table 4, post-emergence): 100%
- pest or weed control at 250 g/ha (Veronica persica (VERPE); Table 4, post-emergence): 100%
- pest or weed control at 500 g/ha (Veronica persica (VERPE); Table 4, post-emergence): 100%
- pest or weed control at 1000 g/ha (Veronica persica (VERPE); Table 4, post-emergence): 100%
- IPOHE % visual injury ([1]; 125 g/ha): 40%
- IPOHE % visual injury ([1]; 250 g/ha): 80%
- IPOHE % visual injury ([1]; 500 g/ha): 100%
- IPOHE % visual injury ([1]; 1000 g/ha): 100%
- DIGSA % visual injury ([6]; 125 g/ha): 90%
- DIGSA % visual injury ([6]; 250 g/ha): 80%
- DIGSA % visual injury ([6]; 500 g/ha): 90%
- DIGSA % visual injury ([6]; 1000 g/ha): 90%
- pest or weed control at 500 g/ha ([2]; Table 3, post-emergence): 40%
- pest or weed control at 125 g/ha [2, 7]: 80%
- pest or weed control at 250 g/ha [2, 8]: 70%
- pest or weed control at 500 g/ha ([2]; Table 4, post-emergence): 60%
- pest or weed control at 1000 g/ha [2, 9]: 90%
- TRZAS % visual injury (spring wheat (TRZAS); 125 g/ha): 30%
- TRZAS % visual injury (spring wheat (TRZAS); 250 g/ha): 30%
- TRZAS % visual injury (spring wheat (TRZAS); 500 g/ha): 50%
- TRZAS % visual injury (spring wheat (TRZAS); 1000 g/ha): 50%
- SETIT % visual injury (Setaria italica (SETIT); 125 g/ha): 0%
- SETIT % visual injury (Setaria italica (SETIT); 250 g/ha): 30%
- SETIT % visual injury (Setaria italica (SETIT); 500 g/ha): 30%
- SETIT % visual injury (Setaria italica (SETIT); 1000 g/ha): 60%
- ORYSA % visual injury (Oryza sativa (ORYSA); 125 g/ha): 60%
- ORYSA % visual injury (Oryza sativa (ORYSA); 250 g/ha): 90%
- ORYSA % visual injury (Oryza sativa (ORYSA); 500 g/ha): 70%
- ORYSA % visual injury (Oryza sativa (ORYSA); 1000 g/ha): 60%
- pest or weed control at 500 g/ha ([3]; Table 3, post-emergence): 95%
- pest or weed control at 125 g/ha ([3]; Table 4, post-emergence): 100%
- pest or weed control at 250 g/ha ([3]; Table 4, post-emergence): 100%
- pest or weed control at 500 g/ha ([3]; Table 4, post-emergence): 100%
- pest or weed control at 1000 g/ha ([3]; Table 4, post-emergence): 100%
- pest or weed control at 500 g/ha ([4]; Table 3, post-emergence): 0%
- pest or weed control at 125 g/ha [4, 7]: 98%
- pest or weed control at 250 g/ha [4, 8]: 90%
- pest or weed control at 500 g/ha ([4]; Table 4, post-emergence): 100%
- pest or weed control at 1000 g/ha [4, 9]: 95%
- GLXMA % visual injury (Glycine max (GLXMA); 125 g/ha): 50%
- GLXMA % visual injury (Glycine max (GLXMA); 250 g/ha): 40%
- GLXMA % visual injury (Glycine max (GLXMA); 500 g/ha): 70%
- GLXMA % visual injury (Glycine max (GLXMA); 1000 g/ha): 50%
- ZEAMX % visual injury (Zea mays (ZEAMX); 125 g/ha): 60%
- ZEAMX % visual injury (Zea mays (ZEAMX); 250 g/ha): 60%
- ZEAMX % visual injury (Zea mays (ZEAMX); 500 g/ha): 50%
- ZEAMX % visual injury (Zea mays (ZEAMX); 1000 g/ha): 70%
- AVEFA % visual injury (Avena fatua (AVEFA); 125 g/ha): 50%
- AVEFA % visual injury (Avena fatua (AVEFA); 250 g/ha): 60%
- AVEFA % visual injury (Avena fatua (AVEFA); 500 g/ha): 60%
- AVEFA % visual injury (Avena fatua (AVEFA); 1000 g/ha): 60%
- STEME % visual injury (Stellaria media (STEME); 125 g/ha): 100%
- STEME % visual injury (Stellaria media (STEME); 250 g/ha): 100%
- STEME % visual injury (Stellaria media (STEME); 500 g/ha): 100%
- STEME % visual injury (Stellaria media (STEME); 1000 g/ha): 100%
